Assays:
[1] = biological target: T1, NL-hA3AR (Homo sapiens, UniProt P0DMS8); assay: NanoBRET saturation ligand-binding assay, NL-hA3AR
T1 construct: expressed in transfected cells
T1 sequence (P0DMS8 1-318): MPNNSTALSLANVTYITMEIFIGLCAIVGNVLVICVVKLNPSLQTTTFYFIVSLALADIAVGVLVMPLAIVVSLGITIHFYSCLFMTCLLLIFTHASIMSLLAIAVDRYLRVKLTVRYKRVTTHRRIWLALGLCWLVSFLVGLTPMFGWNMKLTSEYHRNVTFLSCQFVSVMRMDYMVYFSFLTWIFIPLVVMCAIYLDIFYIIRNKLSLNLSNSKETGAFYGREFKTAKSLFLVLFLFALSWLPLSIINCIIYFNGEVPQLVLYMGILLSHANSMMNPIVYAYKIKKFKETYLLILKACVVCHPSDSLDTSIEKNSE
Method: Probes 11 and 12 were further evaluated for their ability to bind the other three adenosine receptor subtypes (NL-A2AAR, NL-A2BAR, and NL-A3AR), and their ligand-binding properties were quantified in the NanoBRET saturation and inhibition binding assays, respectively (Table 1 and Figure 4).
NanoBRET binding assay. All NanoBRET experiments were performed in white flat […]
37 °C for kinetic binding experiments. Emissions were read at 420 nm (80 nm bandpass; […]
the SulfoCy5-labelled probe. […]
nm emission by the 420 nm emission. The term “raw BRET ratio” refers to the unprocessed data as no background ratio has been subtracted. In all NanoBRET binding […]
competitive antagonist selective for the adenosine receptor under investigation […]
MRS1220 for the A3AR). HEK293T cells stably/transiently expressing Nluc-AR were […]
were incubated for 1 h at 37 °C. […]
NanoBRET saturation binding assay. Total and nonspecific saturation binding curves were fit simultaneously using the following equation:
BRET ratio = Bmax[B] + M(B) + C […]
Uninhibited specific binding = 100 ― 100 x [A]

[2] = test system: T2, endogenously expressed A1AR in DRG neurons; assay: Live-cell confocal imaging of dorsal root ganglion (DRG) neurons; format: cell-based, rat
T2 construct: supporting the potential of the probe for selectively labeling endogenously expressed A1ARs; from tissue; host or cells: primary dorsal root ganglion neurons from adult male Sprague-Dawley rats
Text: Finally, we evaluated the utility of ligand-directed probe 11 to selectively label and visualize the localization and distribution of endogenously expressed A1AR in a physiologically relevant system. Studies have shown that activation of A1ARs expressed on peripheral nociceptive neurons produces analgesic effects,[14],[17],[71] thereby supporting the clinical potential of targeting the A1ARs for the treatment of neuropathic pain. Dorsal root ganglion (DRG) neurons are sensory cells involved in the transmission of pain and they are reported to express the A1AR[72]−[75] along with its cognate adenosine A2AAR[76]−[78] and A3AR[74],[79] receptor subtypes.
Figure 9 Live-cell confocal imaging of dorsal root ganglion (DRG) neurons labeled with SulfoCy5 by ligand-directed chemistry using probe 11 (250 nM). […] Left-hand side frames represent the SulfoCy5 channel, middle frames represent brightfield and right-hand side frames represent merged images from both channels. Images are representative of images acquired in four independent experiments. Scale bar: 10 μm. […]
plates (Nunc Lab-Tek, Thermo Fischer Scientific), pre-coated with Poly-D-Lysine, at 20,000 cells per well in DMEM/10% FCS. 24 h post seeding, cells were transiently transfected with human SNAP-A1. Transient transfections were carried out following manufacturer’s protocol: used FuGENE (Promega) HD at 3:1 ratio of reagent to cDNA with a total of 300 ng cDNA per well. Transfection solutions were made up in Gibco Opti-MEM (Thermo Fischer Scientific), incubated at RT for 5 min and added as 11 µL per well. Cells were incubated for additional 24 h at 37 OC, 5% CO2. Transient Transfection of NanoLuc-tagged human A 2AAR in HEK293T cell line was carried out as follows: 72 h prior to the experiment cells were removed from a confluent T75 flask and centrifuged. The pellet of cells was resuspended in 10 mL of fresh complete DMEM. […]

Question: Which results are given for CCCCn1c(=O)c2[nH]c(C34CCC(C(=O)NCCNC(=O)CCNC(=O)c5ccc(OC(=O)CCCCC[N+]6=C(/C=C/C=C/C=C7/N(C)c8ccc(S(=O)(=O)O)cc8C7(C)C)C(C)(C)c7cc(S(=O)(=O)[O-])ccc76)c(F)c5)(CC3)CC4)nc2n(CCCC)c1=O [Compound 11, 1-(6-(4-((3-((2-(4-(1,3-Dibutyl-2,6-dioxo-2,3,6,7-tetrahydro-1H-purin-8-yl)bicyclo[2.2.2]octane-1-carboxamido)ethyl)amino)-3-oxopropyl)carbamoyl)-2-fluorophenoxy)-6-oxohexyl)-3,3-dimethyl-2-((1E,3E)-5-((E)-1,3,3-trimethyl-5-sulfoindolin-2-ylidene)penta-1,3-dien-1-yl)-3H-indol-1-ium-5-sulfonate]?
Answer: Kd ([1]; HEK293T cells stably expressing NL-hA3AR, read-out: affinity values pKD, NL-hA3AR (converted)): > 1 µM; BRET signal detected at NL-A3AR ([1]; concentrations tested 0–500 nM): minimal BRET signal; labeling of live DRG neurons ([2]; 250 nM, 2 h, adult Sprague-Dawley rat DRG): SulfoCy5-labeling; labeling of DRG neurons after pretreatment with ZM241385 ([2]; 10 μM A2AAR-selective antagonist ZM241385): did not prevent the SulfoCy5 labeling; fluorescence in DRG neurons after pretreatment with DPCPX ([2]; 10 μM DPCPX pretreatment): negligible fluorescence signal
